Measurements published in patent EP2125023B1, “SOLUBLE FORMS OF INCLUSION COMPLEXES OF HISTONE DEACETYLASE INHIBITORS AND CYCLODEXTRINS, THEIR PREPARATION PROCESSES AND USES IN THE PHARMACEUTICAL FIELD” (Universita'Degli Studi di Roma "La Sapienza", priority 2007, dated 2008).

Assay: Solubility tests on SAHA in aqueous HPβCD solutions by UV spectrophotometry
Type: physicochemical
Conditions: for Concentration: dissolved SAHA in the filtered solution brought to 10 ml, by Lambert and Beer's law with mean ε; for Assorbance (AU): water, one week stirring at room temperature, filtered, brought to 10 ml, read at 240 nm
Protocol: Five aqueous solutions of SAHA in cyclodextrin were prepared, maintaining a constant amount of drug and gradually increasing the cyclodextrin concentraion.
Two mg of SAHA (0.0075 mmol) are weighed in five assay tubes and to each is added 1 ml of a solution of 2-hydroxypropyl-β-cyclodextrin (HPβCD) in double-distilled water; we started with a molar ratio of 1:1 corresponding to 0.0116 g of cyclodextrin, proceeding then with molar ratios of 1:2 corresponding to 0.0232 g, 1:3 corresponding to 0.035 g, 1:4 corresponding to 0.046, up to a final ratio of 1:5, corresponding to 0.058 g of cyclodextrin.
The tubes thus prepared and well sealed are left for one week under stirring in a mechanical stirrer at room temperature.
At the end of this period, the solutions are filtered with a 0.5 µm diameter membrane filter in five 10 ml round-bottomed flasks brought to volume with double-distilled water, and the spectrophotometric readings are taken at 240 nm.
From the mean value of ε calculated previously, and using Lambert and Beer's law, the millimolar concentrations of the five solutions can be calculated, as shown in the table.

Concentration (SAHA:HPβCD molar ratio 1:1): 126 µM | Assorbance (AU) (SAHA:HPβCD molar ratio 1:1): 1.6862 AU | Concentration (SAHA:HPβCD molar ratio 1:2): 191 µM | Assorbance (AU) (SAHA:HPβCD molar ratio 1:2): 2,5591 AU | Concentration (SAHA:HPβCD molar ratio 1:3): 196 µM | Assorbance (AU) (SAHA:HPβCD molar ratio 1:3): 2.6196 AU | Concentration (SAHA:HPβCD molar ratio 1:4): 207 µM | Assorbance (AU) (SAHA:HPβCD molar ratio 1:4): 2.7752 AU | Concentration (SAHA:HPβCD molar ratio 1:5): 216 µM | Assorbance (AU) (SAHA:HPβCD molar ratio 1:5): 2.8932 AU
Compound: O=C(CCCCCCC(=O)Nc1ccccc1)NO [SAHA, suberoylanilide hydroxamic acid]
